Drawing on US4278671A, “7-[2-(2-Aminothiazol-4-yl)-2-(syn)-methoxyiminoacetamido] cephalosporins” (Takeda Chemical Industries, Ltd., priority 1976, dated 1981), this text covers MIC for one molecule.

For test [1], the system named is Klebsiella pneumoniae GN 3835. Kind of test: minimal inhibitory concentration against K. pneumoniae GN 3835. The class given is cell-based. The note with it: Klebsiella pneumoniae, GN3835; K. pneumoniae GN 3835; read-out: minimal inhibitory concentration.
Test [2] has as its system Serratia marcescens IFO 12648. Put plainly: minimal inhibitory concentration against Serr. marcescens IFO 12648. The class given is cell-based. The note with it: Serratia marcescens, IFO12648; Serr. marcescens IFO 12648; read-out: minimal inhibitory concentration.
A further test concerns E. coli NIHJ. Put plainly: minimal inhibitory concentration against E. coli NIHJ. In kind it is cell-based. To be noted: Escherichia coli.
A further test concerns Klebsiella pneumoniae DT. Put plainly: minimal inhibitory concentration against K. pneumoniae DT. In kind it is cell-based. The note with it: Klebsiella pneumoniae; K. pneumoniae DT; read-out: minimal inhibitory concentration.
The subject of test [3] is Proteus mirabilis GN 4359. Kind of test: minimal inhibitory concentration against P. mirabilis GN 4359. The class given is cell-based. To be noted: Proteus mirabilis, GN4359; P. mirabilis GN 4359; read-out: minimal inhibitory concentration.
Test [4] relates to Citrobacter freundii GN 1706. Put plainly: minimal inhibitory concentration against Cit. freundii GN 1706. In kind it is cell-based. To be noted: Citrobacter freundii, GN1706; Cit. freundii GN 1706; read-out: minimal inhibitory concentration.
Test [5] deals with Enterobacter cloacae IFO 12937. Kind of test: minimal inhibitory concentration against Ent. cloacae IFO 12937. To be noted: Enterobacter cloacae; Ent. cloacae IFO12937; read-out: minimum inhibitory concentration. In kind it is cell-based.
Another test deals with Serratia TN 0024. Put plainly: minimal inhibitory concentration against Serratia TN 0024. The class given is cell-based. To be noted: TN0024; Serratia TN 0024; read-out: minimal inhibitory concentration.
For test [6], the system named is Citrobacter freundii GN 99. Kind of test: minimal inhibitory concentration against Cit. freundii GN 99. In kind it is cell-based. To be noted: Citrobacter freundii, GN99; Cit. freundii GN 99; read-out: minimal inhibitory concentration.
Test [7] relates to Proteus morganii IFO 3168. Kind of test: minimal inhibitory concentration against P. morganii IFO 3168. The class given is cell-based. The note with it: Morganella morganii, IFO3168; P. morganii IFO 3168; read-out: minimal inhibitory concentration.
Another test deals with E. coli T-7. Kind of test: minimal inhibitory concentration against E. coli T-7. In kind it is cell-based. To be noted: Escherichia coli, T7.
In another test the test system is Proteus rettgeri GN 4733. Kind of test: minimal inhibitory concentration against P. rettgeri GN 4733. In kind it is cell-based. The note with it: Providencia rettgeri, GN4733; P. rettgeri GN 4733; read-out: minimal inhibitory concentration.
The next test concerns P. vulgaris GN 4413. Put plainly: minimal inhibitory concentration against P. vulgaris GN 4413. The class given is cell-based. The note with it: Proteus vulgaris, GN4413.
Another test has as its system P. rettgeri 8(TN0336). Kind of test: minimal inhibitory concentration against P. rettgeri 8 (TN0336). The class given is cell-based, Proteus rettgeri. To be noted: Providencia rettgeri; P. rettgeri 8(TN0336); read-out: minimal inhibitory concentration.
The test system of test [8] is Proteus vulgaris IFO 3988. Kind of test: minimal inhibitory concentration against P. vulgaris IFO 3988. In kind it is cell-based. To be noted: Proteus vulgaris, IFO3988; P. vulgaris IFO 3988; read-out: minimal inhibitory concentration.
The subject of the next test is E. coli 0-111. Put plainly: minimal inhibitory concentration against E. coli 0-111. The class given is cell-based, Escherichia coli. To be noted: Escherichia coli, 0111; E. coli 0-111; read-out: minimal inhibitory concentration.

Each structure is given as a SMILES string. Bounds are passed on as bounds.

As for `CO/N=C(\C(=O)NC1C(=O)N2C(C(=O)O)=C(CSc3nnc(C)s3)CSC12)c1csc(N)n1` (stereo not drawn) [(a), Sodium 7-[2-(2-aminothiazol-4-yl)-2-(syn)-methoxyiminoacetamido]-3-(2-methyl-1,3,4-thiadiazol-5-yl)thiomethyl-3-cephem-4-carboxylate], the MIC in [1] came out at 0.39 µg/mL; in test [2], 0.78 µg/mL; in the test with E. coli NIHJ, 0.2 µg/mL; with Klebsiella pneumoniae DT, 0.05 µg/mL; in [3] it was 0.2 µg/mL; in [4], 0.78 µg/mL. For the same molecule, the MIC in test [5] is 3.13 µg/mL; in the test with Serratia TN 0024 it was 0.78 µg/mL; in test [6], 0.2 µg/mL; in test [7] it was 0.1 µg/mL; in the test with E. coli T-7, 1.56 µg/mL; in the test with Proteus rettgeri GN 4733, 0.39 µg/mL. Also, the MIC with P. vulgaris GN 4413 was 1.56 µg/mL; in the test with P. rettgeri 8(TN0336), at most 0.012 µg/mL; in test [8], 0.1 µg/mL; with E. coli 0-111 it was 0.1 µg/mL.
